Measurements published in ChEMBL document CHEMBL2163248, “Classification of inhibitors of hepatic organic anion transporting polypeptides (OATPs): influence of protein expression on drug-drug interactions” (J Med Chem, 2012).
Where a SMILES comes first, the peptide text is derived from it.

Key:
[1] = target: T1, Solute carrier organic anion transporter family member 1B1 (Homo sapiens, UniProt Q9Y6L6); experiment: Inhibition of human liver OATP1B1 expressed in HEK293 Flp-In cells assessed as reduction in E17-betaG uptake at 20 uM by scintillation counting; settings: hek293, 20 µM
T1 sequence (Q9Y6L6 whole entry): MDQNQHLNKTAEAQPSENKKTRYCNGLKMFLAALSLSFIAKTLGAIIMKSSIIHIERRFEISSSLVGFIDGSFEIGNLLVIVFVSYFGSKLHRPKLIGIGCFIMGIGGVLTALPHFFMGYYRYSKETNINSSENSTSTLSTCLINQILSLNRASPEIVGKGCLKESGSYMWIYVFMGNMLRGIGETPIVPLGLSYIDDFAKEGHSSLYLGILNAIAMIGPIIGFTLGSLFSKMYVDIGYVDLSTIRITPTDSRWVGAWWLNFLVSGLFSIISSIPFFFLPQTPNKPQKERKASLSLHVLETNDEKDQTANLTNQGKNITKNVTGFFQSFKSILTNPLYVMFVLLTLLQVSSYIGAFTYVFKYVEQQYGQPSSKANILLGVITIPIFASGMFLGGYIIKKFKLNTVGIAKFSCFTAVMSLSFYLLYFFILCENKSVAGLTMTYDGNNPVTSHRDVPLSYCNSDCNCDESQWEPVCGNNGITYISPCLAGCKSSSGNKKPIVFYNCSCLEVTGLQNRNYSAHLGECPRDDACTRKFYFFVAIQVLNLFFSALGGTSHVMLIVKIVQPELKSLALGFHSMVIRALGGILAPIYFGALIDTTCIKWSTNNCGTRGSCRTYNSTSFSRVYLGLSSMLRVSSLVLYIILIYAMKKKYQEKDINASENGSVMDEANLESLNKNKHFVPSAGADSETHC

[2] = target: T2, Solute carrier organic anion transporter family member 1B3 (Homo sapiens, UniProt Q9NPD5); experiment: Inhibition of human liver OATP1B3 expressed in HEK293 Flp-In cells assessed as reduction in [3H]E17-betaG uptake at 20 uM incubated for 5 mins by scintillation counting; settings: hek293, 5 min
T2 sequence (Q9NPD5 whole entry): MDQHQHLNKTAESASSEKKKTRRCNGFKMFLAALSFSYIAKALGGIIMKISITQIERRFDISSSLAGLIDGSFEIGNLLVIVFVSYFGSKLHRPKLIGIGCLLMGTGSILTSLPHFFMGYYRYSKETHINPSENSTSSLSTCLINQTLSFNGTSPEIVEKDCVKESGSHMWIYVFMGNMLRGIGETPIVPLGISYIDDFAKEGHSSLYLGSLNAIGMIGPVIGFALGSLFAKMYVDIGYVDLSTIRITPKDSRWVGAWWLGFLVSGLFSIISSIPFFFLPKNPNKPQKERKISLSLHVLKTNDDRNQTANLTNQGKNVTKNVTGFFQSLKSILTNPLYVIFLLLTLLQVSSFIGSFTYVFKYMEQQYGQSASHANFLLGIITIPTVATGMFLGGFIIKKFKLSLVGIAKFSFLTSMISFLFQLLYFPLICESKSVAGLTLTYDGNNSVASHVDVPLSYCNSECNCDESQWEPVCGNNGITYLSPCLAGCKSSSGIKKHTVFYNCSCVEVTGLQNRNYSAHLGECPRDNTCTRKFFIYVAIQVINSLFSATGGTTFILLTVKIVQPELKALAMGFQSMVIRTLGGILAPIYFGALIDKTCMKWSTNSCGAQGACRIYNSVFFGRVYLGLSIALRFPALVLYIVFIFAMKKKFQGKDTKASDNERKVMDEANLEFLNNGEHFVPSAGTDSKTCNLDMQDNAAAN

[3] = target: T3, Solute carrier organic anion transporter family member 2B1 (Homo sapiens, UniProt O94956); experiment: Inhibition of human liver OATP2B1 expressed in HEK293 Flp-In cells assessed as reduction in [3H]E3S uptake at 20 uM incubated for 5 mins by scintillation counting; settings: hek293, 5 min
T3 sequence (O94956 whole entry): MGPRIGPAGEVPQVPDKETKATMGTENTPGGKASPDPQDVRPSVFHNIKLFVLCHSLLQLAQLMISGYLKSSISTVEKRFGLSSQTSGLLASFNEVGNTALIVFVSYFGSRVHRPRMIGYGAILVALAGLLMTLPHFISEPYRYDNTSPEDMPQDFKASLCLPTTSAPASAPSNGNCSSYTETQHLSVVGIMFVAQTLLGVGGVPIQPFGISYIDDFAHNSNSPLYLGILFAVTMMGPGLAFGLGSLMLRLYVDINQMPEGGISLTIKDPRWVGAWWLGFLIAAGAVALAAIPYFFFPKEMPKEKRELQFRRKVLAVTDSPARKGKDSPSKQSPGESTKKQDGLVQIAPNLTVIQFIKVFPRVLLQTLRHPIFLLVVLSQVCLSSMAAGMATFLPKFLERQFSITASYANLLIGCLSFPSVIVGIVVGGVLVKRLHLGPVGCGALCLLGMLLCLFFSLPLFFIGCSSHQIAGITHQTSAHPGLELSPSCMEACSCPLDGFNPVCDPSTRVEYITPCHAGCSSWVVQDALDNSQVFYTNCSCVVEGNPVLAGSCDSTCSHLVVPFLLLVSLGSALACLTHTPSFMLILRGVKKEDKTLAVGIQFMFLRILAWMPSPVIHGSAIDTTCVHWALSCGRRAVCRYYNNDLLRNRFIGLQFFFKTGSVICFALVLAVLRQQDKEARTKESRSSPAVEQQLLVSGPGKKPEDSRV

Row | Structure (SMILES) | INH [1] [%] | INH [2] [%] | INH [3] [%]
1 | NCC(=O)N1CCC[C@H]1C(=O)O [GLYCYL PROLINE] (H-Gly-Pro-OH) | -8.4 | 9.6 | 24.1
2 | CCCC1O[C@@H]2C[C@H]3[C@@H]4CCC5=CC(=O)C=C[C@]5(C)[C@H]4[C@@H](O)C[C@]3(C)[C@]2(C(=O)CO)O1 (stereo not given in full) [BUDESONIDE] | 73.2 | 79 | 30.3
3 | COc1ccccc1OCC(O)CN1CCN(CC(=O)Nc2c(C)cccc2C)CC1 (stereo not given) [RANOLAZINE] | 4.3 | -14.9 | 41.6
4 | COc1ccc([C@@H]2Sc3ccccc3N(CCN(C)C)C(=O)[C@@H]2OC(C)=O)cc1 [DILTIAZEM] | 3.2 | 4.1 | -9.1
5 | O=C(NCCN1CCOCC1)c1ccc(Cl)cc1 [MOCLOBEMIDE] | 1.7 | -3.3 | 27.5
6 | CC1(C)C(/C=C/C=C/C=C/C=C2/N(CCCCS(=O)(=O)[O-])c3ccc4ccccc4c3C2(C)C)=[N+](CCCCS(=O)(=O)[O-])c2ccc3ccccc3c21.[Na+] [INDOCYANINE GREEN] | 86.1 | 100.1 | 79.2
7 | C[C@@H]1C[C@H]2[C@@H]3CCC4=CC(=O)C=C[C@]4(C)[C@@]3(F)[C@@H](O)C[C@]2(C)[C@@]1(O)C(=O)CO [DEXAMETHASONE] | 10.7 | 34.2 | -12.5
8 | Nc1nnc(-c2cccc(Cl)c2Cl)c(N)n1 [LAMOTRIGINE] | 24.9 | 14.5 | 13.6
9 | CN(C)CC/C=C1/c2ccccc2Sc2ccc(Cl)cc21 [CHLORPROTHIXENE] | 24 | -6.9 | 26.6
10 | CCOc1nc2cccc(C(=O)O)c2n1Cc1ccc(-c2ccccc2-c2nnn[nH]2)cc1 | 52.1 | 28.6 | 28.4
11 | CC(=O)S[C@@H]1CC2=CC(=O)CC[C@]2(C)[C@H]2CC[C@@]3(C)[C@@H](CC[C@@]34CCC(=O)O4)[C@H]12 [SPIRONOLACTONE] | 88.3 | -34.2 | -82
12 | O=C1OC(c2ccc(O)c(S(=O)(=O)[O-])c2)(c2ccc(O)c(S(=O)(=O)[O-])c2)c2c(Br)c(Br)c(Br)c(Br)c21.[Na+].[Na+] [SULFOBROMOPHTHALEIN SODIUM] | 94.1 | 74.9 | 69.3
13 | CN(C)C(=O)CCSC(SCCC(=O)O)c1cccc(/C=C/c2ccc3ccc(Cl)cc3n2)c1 (stereo not given) [MK-571] | 88.5 | 80.7 | 75.2
14 | COC(=O)N[C@H](C(=O)N[C@@H](Cc1ccccc1)[C@@H](O)CN(Cc1ccc(-c2ccccn2)cc1)NC(=O)[C@@H](NC(=O)OC)C(C)(C)C)C(C)(C)C [ATAZANAVIR] | 95 | 92.6 | 90.1
15 | CCc1ccc(CCOc2ccc(CC3SC(=O)NC3=O)cc2)nc1 (stereo not given) [PIOGLITAZONE] | 21.9 | 5.6 | -9.9
16 | NCCCC[C@H](N[C@@H](CCc1ccccc1)C(=O)O)C(=O)N1CCC[C@H]1C(=O)O [LISINOPRIL ANHYDROUS] | 4.6 | 9 | 19.2
17 | C[N+](C)(C)CC(O)CC(=O)[O-] (stereo not given) [CARNITINE] | 36.6 | -9.3 | 15.5
18 | CN(Cc1cnc2nc(N)nc(N)c2n1)c1ccc(C(=O)N[C@@H](CCC(=O)O)C(=O)O)cc1 [METHOTREXATE] | 27.4 | 17.2 | -13.4
19 | CNCC[C@@H](Oc1ccccc1C)c1ccccc1 [ATOMOXETINE] | -7.5 | 31.6 | 16.3
20 | CO[C@H]1/C=C/O[C@@]2(C)Oc3c(C)c(O)c4c(O)c(cc(O)c4c3C2=O)NC(=O)/C(C)=C\C=C\[C@H](C)[C@H](O)[C@@H](C)[C@@H](O)[C@@H](C)[C@H](OC(C)=O)[C@@H]1C [RIFAMYCIN] | 95.4 | 101.4 | 74.8
